From patent US10155767B2, “Therapeutic agent of acute myeloid leukemia containing 1,3,7-trisubstituted 3,4-dihydropyrimido[4,5-D]pyrimidine-2(1H)-one derivatives” (KOREA INSTITUTE OF SCIENCE AND TECHNOLOGY, priority 2016, dated 2018)

Legend:
Ba/F3 (N-Ras G12D) = experiment: Proliferation inhibitory activity, mt-NRAS (G12D) Ba/F3 cell line; assay type: cell-based; conditions: Mus musculus, BaF3, read-out: Proliferation inhibitory ability (GI50, μM) Ba/F3 (N-Ras G12D)
Experimental: (§1) With respect to each of the compounds synthesized in Synthesis Examples, GI50 values were calculated by measuring proliferation inhibitory abilities for mt-NRAS (G12D) Ba/F3, U937 (wt-NRAS), and OCI-AML3 (mt-NRAS) cell lines.

U937 (N-Ras WT) = experiment: Proliferation inhibitory activity, U937 cell line; assay type: cell-based; conditions: Homo sapiens, U-937; U937 (wt-NRAS) cell line; read-out: Proliferation inhibitory ability (GI50, μM) U937 (N-Ras WT)
Experimental: as §1

GCK = biological target: T1, GCK (Homo sapiens, UniProt Q12851); experiment: Kinase inhibitory activity, GCK; assay type: biochemical
T1 sequence (Q12851 1-820): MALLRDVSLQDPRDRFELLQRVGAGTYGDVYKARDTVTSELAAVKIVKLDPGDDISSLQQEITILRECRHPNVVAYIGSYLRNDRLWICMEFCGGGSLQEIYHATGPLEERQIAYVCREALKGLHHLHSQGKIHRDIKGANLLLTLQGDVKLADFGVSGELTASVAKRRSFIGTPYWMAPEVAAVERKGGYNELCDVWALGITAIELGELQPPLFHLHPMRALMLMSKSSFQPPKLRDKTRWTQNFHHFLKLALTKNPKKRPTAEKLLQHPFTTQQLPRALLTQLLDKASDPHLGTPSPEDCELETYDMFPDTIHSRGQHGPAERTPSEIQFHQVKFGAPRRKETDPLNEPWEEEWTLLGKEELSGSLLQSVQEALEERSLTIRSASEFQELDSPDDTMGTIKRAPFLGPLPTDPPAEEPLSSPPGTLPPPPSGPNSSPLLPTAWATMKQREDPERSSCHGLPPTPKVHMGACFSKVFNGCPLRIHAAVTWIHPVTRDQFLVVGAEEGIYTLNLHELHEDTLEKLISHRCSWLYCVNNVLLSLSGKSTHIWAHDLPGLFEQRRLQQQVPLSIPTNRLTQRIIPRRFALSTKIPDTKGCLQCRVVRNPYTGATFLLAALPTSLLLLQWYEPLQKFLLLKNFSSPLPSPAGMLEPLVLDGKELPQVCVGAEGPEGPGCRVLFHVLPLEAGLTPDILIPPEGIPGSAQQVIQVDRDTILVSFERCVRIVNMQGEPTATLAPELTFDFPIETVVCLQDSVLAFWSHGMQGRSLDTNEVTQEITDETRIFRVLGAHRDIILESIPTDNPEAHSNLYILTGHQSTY
Experimental: (§2) With respect to the compounds of the present invention, IC50 values were calculated by measuring inhibitory ability for two kinases of GCK and ACK1.

ACK1 = ACK1 (Homo sapiens, UniProt Q07912); experiment: Kinase inhibitory activity, ACK1; assay type: biochemical
Sequence of ACK1 (Q07912 whole entry): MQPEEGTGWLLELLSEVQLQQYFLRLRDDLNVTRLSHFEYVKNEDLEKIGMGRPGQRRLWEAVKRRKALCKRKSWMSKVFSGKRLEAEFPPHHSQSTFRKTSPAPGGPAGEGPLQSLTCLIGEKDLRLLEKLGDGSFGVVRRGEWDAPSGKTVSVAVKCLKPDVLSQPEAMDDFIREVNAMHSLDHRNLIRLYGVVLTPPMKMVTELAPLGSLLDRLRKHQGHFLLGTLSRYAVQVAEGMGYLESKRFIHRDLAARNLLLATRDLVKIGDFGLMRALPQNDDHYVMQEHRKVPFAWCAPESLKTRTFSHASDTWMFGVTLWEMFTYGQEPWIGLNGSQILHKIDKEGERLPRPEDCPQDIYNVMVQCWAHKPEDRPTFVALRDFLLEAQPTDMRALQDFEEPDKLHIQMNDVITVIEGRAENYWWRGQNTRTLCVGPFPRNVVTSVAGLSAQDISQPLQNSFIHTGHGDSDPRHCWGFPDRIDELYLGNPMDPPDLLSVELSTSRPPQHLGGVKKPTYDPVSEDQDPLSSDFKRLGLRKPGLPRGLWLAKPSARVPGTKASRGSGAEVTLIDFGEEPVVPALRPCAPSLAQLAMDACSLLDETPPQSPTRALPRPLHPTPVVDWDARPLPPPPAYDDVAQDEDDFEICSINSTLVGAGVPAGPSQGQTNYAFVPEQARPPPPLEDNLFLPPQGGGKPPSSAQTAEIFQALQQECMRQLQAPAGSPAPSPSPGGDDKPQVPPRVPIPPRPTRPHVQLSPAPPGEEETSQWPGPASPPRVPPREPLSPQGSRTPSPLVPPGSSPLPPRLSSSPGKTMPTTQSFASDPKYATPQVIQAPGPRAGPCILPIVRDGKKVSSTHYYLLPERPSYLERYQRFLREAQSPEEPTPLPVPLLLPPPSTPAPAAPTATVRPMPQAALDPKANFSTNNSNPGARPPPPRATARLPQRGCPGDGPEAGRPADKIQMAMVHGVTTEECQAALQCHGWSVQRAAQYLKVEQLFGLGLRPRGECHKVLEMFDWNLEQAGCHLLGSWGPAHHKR
Experimental: as §2

OCI-AML3 (N-RasQ61L) = experiment: Proliferation inhibitory activity, OCI-AML3 cell line; assay type: cell-based; conditions: Homo sapiens, OCI-AML-3; OCI-AML3 (mt-NRAS) cell line; read-out: Proliferation inhibitory ability (GI50, μM) OCI-AML3 (N-RasQ61L)
Experimental: as §1

GI50 (Ba/F3 (N-Ras G12D)) | GI50 (U937 (N-Ras WT)) | IC50 (GCK) | IC50 (ACK1) | GI50 (OCI-AML3 (N-RasQ61L)) | SMILES
< 0.2 µM | < 0.2 µM | < 30 nM | 45 to 100 nM | < 0.2 µM | CCN1CCN(c2cccc(Nc3ncc4c(n3)N(C)C(=O)N(c3cc(NC(=O)c5cccc(C(F)(F)F)c5)ccc3C)C4)c2)CC1 [Compound 2, N-(3-(7-((3-(4-ethylpiperazin-1-yl)phenyl)amino)-1-methyl-2-oxo-1,4-dihydropyrimido[4,5-d]pyrimidin-3-(2H)-yl)-4-methylphenyl)-3-(trifluoromethyl)benzamide]
0.2 to 0.7 µM | ≥ 2 µM | 45 to 100 nM | 30 to 45 nM | 0.2 to 0.7 µM | Cc1ccc(NC(=O)c2cccc(C(F)(F)F)c2)cc1N1Cc2cnc(Nc3ccccc3)nc2N(C)C1=O [Compound 4, N-(4-methyl-3-(1-methyl-2-oxo-7-(phenylamino)-1,4-dihydropyrimido[4,5-d]pyrimidin-3(2H)-yl)phenyl)-3-(trifluoromethyl)benzamide]
< 0.2 µM | 1.2 to 2 µM | < 30 nM | < 30 nM | < 0.2 µM | CCN1CCN(c2ccc(Nc3ncc4c(n3)N(C)C(=O)N(c3cc(NC(=O)c5cccc(C(F)(F)F)c5)ccc3C)C4)cn2)CC1 [Compound 1, N-(3-(7-((6-(4-ethylpiperazin-1-yl)pyridin-3-yl)amino)-1-methyl-2-oxo-1,4-dihydropyrimido[4,5-d]pyrimidin-3-(2H)-yl)-4-methylphenyl)-3-(trifluoromethyl)benzamide]
0.2 to 0.7 µM | ≥ 2 µM | ≥ 300 nM | 45 to 100 nM | ≥ 2 µM | Cc1ccc(NC(=O)c2cccc(C(F)(F)F)c2)cc1N1Cc2cnc(NC3CCCCC3)nc2N(C)C1=O [Compound 5, N-(3-(7-(cyclohexylamino)-1-methyl-2-oxo-1,4-dihydropyrimido[4,5-d]pyrimidin-3(2H)-yl)-4-methylphenyl)-3-(trifluoromethyl)benzamide]
0.2 to 0.7 µM | ≥ 2 µM | 30 to 45 nM | 30 to 45 nM | 0.2 to 0.7 µM | Cc1ccc(NC(=O)c2cccc(C(F)(F)F)c2)cc1N1Cc2cnc(NC3CC3)nc2N(C)C1=O [Compound 7, N-(3-(7-(cyclopropylamino)-1-methyl-2-oxo-1,4-dihydropyrimido[4,5-d]pyrimidin-3(2H)-yl)-4-methylphenyl)-3-(trifluoromethyl)benzamide]
≥ 2 µM | ≥ 2 µM | 30 to 45 nM | < 30 nM | 0.7 to 1.2 µM | Cc1ccc(NC(=O)c2cccc(C(F)(F)F)c2)cc1N1Cc2cnc(NCCO)nc2N(C)C1=O [Compound 6, N-(3-(7-((2-hydroxylethyl)amino)-1-methyl-2-oxo-1,4-dihydropyrimido[4,5-d]pyrimidin-3(2H)-yl)-4-methylphenyl)-3-(trifluoromethyl)benzamide]
< 0.2 µM | 0.7 to 1.2 µM | < 30 nM | < 30 nM | 0.2 to 0.7 µM | Cc1ccc(NC(=O)c2cccc(C(F)(F)F)c2)cc1N1Cc2cnc(Nc3cnn(C)c3)nc2N(C)C1=O [Compound 3]
